# Biological target: PDE 5 (Homo sapiens, UniProt O76074)
# Assay: PDE 5 enzyme inhibition (PDE 5 IC50)
# Assay type: biochemical
row,SMILES,IC50 [nM]
1,Cn1c(=O)c2c(nc(NC3CCCCC3)n2Cc2ccc(O)cc2)n(C)c1=O [Compound 37],5 to 10
2,COc1ccc(Cn2c(NC3CC4CCC3C4)nc3c2c(=O)n(C)c(=O)n3C)cc1 (stereo not drawn) [Compound 77],15 to 100
3,CCn1c(=O)c2c(nc(NC3CCCC3)n2Cc2ccc(O)cc2)n(C)c1=O [Compound 79],5 to 10
4,CCn1c(=O)c2c(nc(NC3CCCCC3)n2Cc2ccc(OC)cc2)n(CCO)c1=O [Compound 103],≤ 5
5,CCn1c(=O)c2c(nc(NC3CCCCC3)n2Cc2ccc(O)cc2)n(CCO)c1=O [Compound 104],≤ 5
6,CCn1c(=O)c2c(nc(NC3CCCCC3)n2Cc2ccc(OC)c(Cl)c2)n(CCO)c1=O [Compound 105],≤ 5
7,CCn1c(=O)c2c(nc(N[C@@H]3CCC[C@H]3O)n2Cc2ccc(OC)c(Cl)c2)n(CCO)c1=O [Compound 106],≤ 5
8,CCn1c(=O)c2c(nc(NC3CCCCC3)n2Cc2ccc(O)c(Cl)c2)n(CCO)c1=O [Compound 107],≤ 5
9,CCn1c(=O)c2c(nc(NC3CCCCC3)n2Cc2ccc(O)c(Br)c2)n(CCO)c1=O [Compound 116],≤ 5
10,CCn1c(=O)c2c(nc(NC3CCCCC3)n2Cc2ccc(OC)c(Br)c2)n(CCO)c1=O [Compound 117],≤ 5
11,CCn1c(=O)c2c(nc(N[C@@H]3CCC[C@H]3O)n2Cc2ccc(O)c(Br)c2)n(CCO)c1=O [Compound 118],≤ 5
12,CCn1c(=O)c2c(nc(NC3CCCCC3)n2Cc2ccc(S(N)(=O)=O)cc2)n(CC)c1=O [Compound 119],≤ 5
13,CCn1c(=O)c2c(nc(NC3CCCCC3)n2Cc2ccc(OC)c(Br)c2)n(CC)c1=O [Compound 122],≤ 5
14,CCn1c(=O)c2c(nc(N[C@@H]3CCC[C@H]3O)n2Cc2ccc(OC)c(Br)c2)n(CC)c1=O [Compound 123],≤ 5
15,CCn1c(=O)c2c(nc(N[C@@H]3CCCC[C@@H]3O)n2Cc2ccc(OC)c(Br)c2)n(CC)c1=O [Compound 124],≤ 5
16,Cn1c(=O)c2c(nc(NC3CCCCC3)n2Cc2cccc(O)c2)n(C)c1=O [Compound 146],15 to 100
17,Cc1cc(Cn2c(NC3CCCCC3)nc3c2c(=O)n(C)c(=O)n3C)ccc1O [Compound 147],15 to 100
18,Cn1c(=O)c2c(nc(NC3CCCCC3)n2Cc2ccccc2Cl)n(C)c1=O [Compound 148],15 to 100
19,CCn1c(=O)c2c(nc(NC3CCCCC3)n2Cc2ccc3c(c2)OCO3)n(CC)c1=O [Compound 168],≤ 5
20,CCn1c(=O)c2c(nc(NC3CCCCC3)n2Cc2ccc(O)c(C)c2)n(CC)c1=O [Compound 169],≤ 5
21,CCn1c(=O)c2c(nc(NC3CCCCC3)n2Cc2cccc(O)c2)n(CC)c1=O [Compound 170],≤ 5
22,CCn1c(=O)c2c(nc(NC3CCOCC3)n2Cc2ccc(OC)c(Br)c2)n(CCO)c1=O [Compound 186],≤ 5
23,CCN(CC)CCn1c(=O)n(CC)c(=O)c2c1nc(NC1CCCCC1)n2Cc1ccc(OC)c(Br)c1 [Compound 187],≤ 5
24,CCn1c(=O)c2c(nc(NC3CCOCC3)n2Cc2ccc(S(N)(=O)=O)cc2)n(CC)c1=O [Compound 188],≤ 5

# Reference: patent US20090105282A1, “METHODS OF TREATING BENIGN PROSTATIC HYPERPLASIA OR LOWER URINARY TRACT SYMPTOMS BY USING PDE 5 INHIBITORS” (Schering-Plough Corporation, priority 2005, published 2009)
